Results from article PMC6325219, “Preclinical Characterization of NVR 3-778, a First-in-Class Capsid Assembly Modulator against Hepatitis B Virus” (Antimicrobial Agents and Chemotherapy, 2018).
“And” between values parts separate entries of the source, which are not always exact repeats. Equal values may be shown once. Read-outs that look alike come from different tables or passages of the source.

Columns and labels:
β-actin mRNA = test: Host β-actin mRNA in PHH during de novo infection study; assay type: cell-based, human; details: 11 days, highest concentration tested 30 μM
Procedure: Cryopreserved PHH (Life Technologies) were seeded at 40,000 cells/well 1 day before infection. The HBV inoculum, concentrated from the supernatants of HepG2.2.15 cells, was prepared at 200 genome equivalents/cell in PHH medium (DMEM containing 10% FBS and a supplement cocktail containing HEPES, L-proline, insulin epidermal growth factor, dexamethasone, and ascorbic acid-2-phosphate, as previously described) with 2% DMSO and 4% polyethylene glycol (PEG) 8000 (Sigma). Compounds were serially diluted in DMSO at 50-fold strength and added to PHH medium containing the HBV inoculum, prior to infecting the PHH. After overnight incubation, the infection mixtures were removed and the cells were replenished with PHH medium containing freshly diluted compounds. On day 5 and day 8 postinfection, the media containing the compounds were removed and the cells were replenished with PHH medium containing freshly diluted compounds. […] HBV DNA, HBsAg, and HBeAg were determined from the supernatants of infected PHH using bDNA assays (Affymetrix) and HBsAg or HBeAg chemiluminescence immunoassay kits (Autobio), as recommended by the manufacturers. Intracellular total HBV RNA mRNA and host mRNA levels were monitored by using the QuantiGene assays (Affymetrix) and probe sets that hybridized to the X region, which is common to all HBV transcripts, and the host β-actin mRNA, respectively.

HBV GT E = test: Transient-transfection antiviral study in HepG2 cells, GT E; assay type: cell-based; details: Hepatitis B virus, HepG2, 72 h, read-out: EC50 (mean), HBV GT E
Procedure: (§2) Cells were cotransfected with the HBV plasmids (100 ng/well) and a Gaussia expression plasmid (10 ng/well) (Thermo Scientific) using the Lipofectamine LTX Plus transfection reagent (Life Technologies). Transfection mixtures were removed after overnight incubation, and cells were treated with serially diluted NVR 3-778 at a final dimethyl sulfoxide (DMSO) concentration of 0.5%. After 3 days of incubation with the compound, the supernatants were collected and secreted Gaussia luciferase was measured using a Gaussia Flash luciferase assay kit (Thermo Scientific). […] Samples were diluted into lysis buffer (Affymetrix) containing 2.5 µg proteinase K (Affymetrix) at 50°C for 40 min. Intracellular encapsidated HBV DNA was denatured for 30 min at 25°C in 0.2 M NaOH (Sigma) and incubated with HBV DNA probes designed to hybridize to the minus-strand HBV DNA (Affymetrix). The denatured DNA was subsequently detected using a QuantiGene assay kit, according to the branched DNA (bDNA) assay recommended by the manufacturer (Affymetrix).

HBV GT G = test: Transient-transfection antiviral study in HepG2 cells, GT G; assay type: cell-based; details: Hepatitis B virus, HepG2, 72 h, read-out: EC50 (mean), HBV GT G
Procedure: as §2

HBV GT H = test: Transient-transfection antiviral study in HepG2 cells, GT H; assay type: cell-based; details: Hepatitis B virus, HepG2, 72 h, read-out: EC50 (mean), HBV GT H
Procedure: as §2

[1] = 28-day twice-daily oral gavage pharmacokinetics in CD1 mice; assay type: in vivo; details: for Cmax / half-life / AUC(0-t) / Tmax: CD1, mouse, plasma, po; for AUC(0-t): after second daily dose, read-out: AUC0–12; for Tmax: relative to second daily dose
Procedure: Fed male and female CD1 mice (36/sex/group) were dosed twice a day (BID) by oral gavage with 50, 150, and 500 mg/kg of body weight/dose of NVR 3-778 for 28 days. At different time points after dosing, plasma was analyzed for NVR 3-778 concentration by liquid chromatography-tandem mass spectrometry (LC-MS/MS).
In vivo pharmacokinetics studies were performed at Covance Laboratories (Madison, Wisconsin), accredited by the Association for Assessment and Accreditation of Laboratory Animal Care (AAALAC). All procedures in the protocols were in compliance with applicable animal welfare acts and were approved by the local Institutional Animal Care and Use Committee (IACUC). For the 28-day study in mice, male and female mice were 6 to 7 weeks old at the initiation of dosing. Environmental conditions, diet, and water were typical for pharmacokinetic and tolerability studies. NVR 3-778 was dosed in a vehicle of 0.5% (wt/vol) hydroxypropyl methylcellulose (Methocel E50 premium)--1% (wt/vol) polysorbate 80 (Tween 80) in reverse osmosis water. Blood samples were collected at 0.25, 0.5, 1, 3, 6, and 12 h after dosing on day 1 and on day 28 of the study into potassium (K2) EDTA. Plasma was harvested and stored at −80°C.

[2] = Hepatocyte stability, human hepatocytes; assay type: in vitro ADME; details: 120 min incubation
Procedure: (§1) Following in vitro incubation for 120 min with human, mouse, or dog hepatocytes, >85% of the NVR 3-778 remained intact. […] The fewest number of metabolites was found following incubation with human hepatocytes, where 92% of the NVR 3-778 remained after a 120-min incubation.

[3] = Hepatocyte stability, mouse hepatocytes; assay type: in vitro ADME; details: 120 min incubation
Procedure: as §1

HBV = test system: HBV; design: method as in doi:10.1016/S0168-8278(16)00175-6; details: HBV-infected patients; cited from earlier work
[4] = female, 50 mg/kg, day 1, 50 mg/kg/dose BID oral gavage, F
[5] = female, 50 mg/kg, day 28, 50 mg/kg/dose BID oral gavage, F
[6] = female, 150 mg/kg, day 1, 150 mg/kg/dose BID oral gavage, F
[7] = female, 150 mg/kg, day 28, 150 mg/kg/dose BID oral gavage, F
[8] = female, 500 mg/kg, day 1, 500 mg/kg/dose BID oral gavage, F
[9] = female, 500 mg/kg, day 28, 500 mg/kg/dose BID oral gavage, F
[10] = male, 50 mg/kg, day 1, 50 mg/kg/dose BID oral gavage, M
[11] = male, 50 mg/kg, day 28, 50 mg/kg/dose BID oral gavage, M
[12] = male, 150 mg/kg, day 1, 150 mg/kg/dose BID oral gavage, M
[13] = male, 150 mg/kg, day 28, 150 mg/kg/dose BID oral gavage, M
[14] = male, 500 mg/kg, day 1, 500 mg/kg/dose BID oral gavage, M
[15] = male, 500 mg/kg, day 28, 500 mg/kg/dose BID oral gavage, M

## Nc1ccn([C@@H]2CS[C@H](CO)O2)c(=O)n1 [LMV, lamivudine, reference compound]
β-actin mRNA
  CC50 (EC50), β-actin mRNA: >30000 nM
  CC90 (EC90 column), β-actin mRNA: >30000 nM

## O=C(Nc1cc(F)c(F)c(F)c1)c1ccc(F)c(S(=O)(=O)N2CCC(O)CC2)c1 [NVR 3-778]
HBV GT E
  EC50: 580 nM
HBV GT G
  EC50: 250 nM
HBV GT H
  EC50: 580 nM
[1]; CD1 mice, Cmax and AUC
  Gender differences in NVR 3-778 exposure: less than 2 fold
[1]; both sexes, 500 mg/kg, 28-day study, dosed orally at 500 mg/kg BID, 100 µM = 43.2 µg/ml, read-out: Mean Cmax (serum/plasma level reached in mice)
  Cmax: > 100 µM
[1]; [4]
  half-life: 2.2 h
  AUC(0-t): 60.1 µg·h/mL
  Tmax: 0.5 h
[1]; female, 50 mg/kg, day 1, 50 mg/kg/dose BID oral gavage, F, read-out: Cmax
  Cmax: 11700 ng/mL
[1]; [5]
  AUC(0-t): 78.8 µg·h/mL
  Tmax: 3 h
[1]; female, 50 mg/kg, day 28, 50 mg/kg/dose BID oral gavage, F, read-out: Cmax
  Cmax: 11500 ng/mL
[1]; [6]
  half-life: 4.35 h
  AUC(0-t): 131 µg·h/mL
  Tmax: 0.5 h
[1]; female, 150 mg/kg, day 1, 150 mg/kg/dose BID oral gavage, F, read-out: Cmax
  Cmax: 22000 ng/mL
[1]; [7]
  half-life: 2.48 h
  AUC(0-t): 171 µg·h/mL
  Tmax: 1 h
[1]; female, 150 mg/kg, day 28, 150 mg/kg/dose BID oral gavage, F, read-out: Cmax
  Cmax: 26600 ng/mL
[1]; [8]
  AUC(0-t): 315 µg·h/mL
  Tmax: 0.5 h
[1]; female, 500 mg/kg, day 1, 500 mg/kg/dose BID oral gavage, F, read-out: Cmax
  Cmax: 41400 ng/mL
[1]; [9]
  AUC(0-t): 354 µg·h/mL
  Tmax: 3 h
[1]; female, 500 mg/kg, day 28, 500 mg/kg/dose BID oral gavage, F, read-out: Cmax
  Cmax: 40800 ng/mL
[1]; [10]
  AUC(0-t): 70.4 µg·h/mL
  Tmax: 1 h
[1]; male, 50 mg/kg, day 1, 50 mg/kg/dose BID oral gavage, M, read-out: Cmax
  Cmax: 12700 ng/mL
[1]; [11]
  AUC(0-t): 87.3 µg·h/mL
  Tmax: 3 h
[1]; male, 50 mg/kg, day 28, 50 mg/kg/dose BID oral gavage, M, read-out: Cmax
  Cmax: 11900 ng/mL
[1]; [12]
  half-life: 5 h
  AUC(0-t): 166 µg·h/mL
  Tmax: 1 h
[1]; male, 150 mg/kg, day 1, 150 mg/kg/dose BID oral gavage, M, read-out: Cmax
  Cmax: 25300 ng/mL
[1]; [13]
  AUC(0-t): 157 µg·h/mL
  Tmax: 1 h
[1]; male, 150 mg/kg, day 28, 150 mg/kg/dose BID oral gavage, M, read-out: Cmax
  Cmax: 24200 ng/mL
[1]; [14]
  AUC(0-t): 406 µg·h/mL
  Tmax: 1 h
[1]; male, 500 mg/kg, day 1, 500 mg/kg/dose BID oral gavage, M, read-out: Cmax
  Cmax: 43000 ng/mL
[1]; [15]
  half-life: 3.15 h
  AUC(0-t): 375 µg·h/mL
  Tmax: 3 h
[1]; male, 500 mg/kg, day 28, 500 mg/kg/dose BID oral gavage, M, read-out: Cmax
  Cmax: 43800 ng/mL
[1]; mice, oral gavage
  Circulating species in plasma: predominant circulating molecule
[2]
  NVR 3-778 remaining intact: > 85% and 92%
[3]
  NVR 3-778 remaining intact: > 85%
HBV
  Antiviral effect, combination with pegIFN versus NVR 3-778 monotherapy: greatest antiviral effect
